Measurements published in PubChem BioAssay (NCI).
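Method: 48-hour compound exposure of cells in 96-well plates, five concentrations, linear interpolation of endpoints. Definition used: TGI = concentration required for complete inhibition of growth.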

Legend:
Test in all cases: NCI tumour cell line growth inhibition, 48 h
OVCAR-3 ovarian = test system: OVCAR-3 ovarian
OVCAR-4 ovarian = test system: OVCAR-4 ovarian
LOX IMVI melanoma = test system: LOX IMVI melanoma
UACC-257 melanoma = test system: UACC-257 melanoma
UO-31 renal = test system: UO-31 renal
TK-10 renal = test system: TK-10 renal
HT29 colon = test system: HT29 colon
CAKI-1 renal = test system: CAKI-1 renal
SF-268 CNS = test system: SF-268 CNS
RPMI-8226 leukemia = test system: RPMI-8226 leukemia
KM12 colon = test system: KM12 colon
NCI/ADR-RES ovarian = test system: NCI/ADR-RES ovarian
DU-145 prostate = test system: DU-145 prostate
M14 melanoma = test system: M14 melanoma
IGROV1 ovarian = test system: IGROV1 ovarian
MDA-MB-231 breast = test system: MDA-MB-231 breast
SN12C renal = test system: SN12C renal
SK-MEL-28 melanoma = test system: SK-MEL-28 melanoma
SK-MEL-2 melanoma = test system: SK-MEL-2 melanoma
BT-549 breast = test system: BT-549 breast

Structure (SMILES)	TGI (OVCAR-3 ovarian) [µM]	TGI (OVCAR-4 ovarian) [µM]	TGI (LOX IMVI melanoma) [µM]	TGI (UACC-257 melanoma) [µM]	TGI (UO-31 renal) [µM]	TGI (TK-10 renal) [µM]	TGI (HT29 colon) [µM]	TGI (CAKI-1 renal) [µM]	TGI (SF-268 CNS) [µM]	TGI (RPMI-8226 leukemia) [µM]	TGI (KM12 colon) [µM]	TGI (NCI/ADR-RES ovarian) [µM]	TGI (DU-145 prostate) [µM]	TGI (M14 melanoma) [µM]	TGI (IGROV1 ovarian) [µM]	TGI (MDA-MB-231 breast) [µM]	TGI (SN12C renal) [µM]	TGI (SK-MEL-28 melanoma) [µM]	TGI (SK-MEL-2 melanoma) [µM]	TGI (BT-549 breast) [µM]
CN(C)c1cccc2c1C(=O)C=CC21CCc2ccc(N(C)C)c3c(N(C)C)ccc1c23 (stereo unspecified)	24.8	83.4	31.9	25.1	24.1	28.1	27	40	33.8	58.6	30.2	> 100	17.5	29.1	31.2	31.2	26.5	30.4	–	–
CC1(C)CC(=O)c2c(nc3c(ccc4ccccc43)c2-c2ccc(NC(=O)CCCCC(=O)Nc3ccc(-c4c5c(nc6c4ccc4ccccc46)CC(C)(C)CC5=O)cc3)cc2)C1	80.8	–	33.3	> 100	74.1	> 100	62.3	> 100	> 100	71.4	42.2	77.6	> 100	> 100	37.5	64.6	92.8	> 100	92.6	–
COc1ccc(N2C(=O)C3c4[nH]c5ccc(F)cc5c4C4CCC(C(C)(C)C)CC4C3C2=O)cc1 (stereo unspecified)	> 10	> 10	–	–	> 10	> 10	> 10	> 10	> 10	> 10	> 10	> 10	> 10	> 10	> 10	> 10	> 10	> 10	> 10	–
CC1(C)OC[C@@H](O)[C@H](Br)CO1	> 100	> 100	> 100	> 100	> 100	> 100	> 100	> 100	> 100	> 100	> 100	–	> 100	> 100	–	> 100	> 100	> 100	> 100	> 100
COc1ccc2nc3n(c2c1)C(=O)c1ccccc1-3	> 100	> 100	–	> 100	> 100	> 100	> 100	> 100	> 100	> 100	> 100	> 100	> 100	> 100	> 100	–	> 100	> 100	> 100	–
COC(=O)/C=C(\S/C=C(/c1ccccc1)N1CCn2c(C(=O)c3ccccc3)c(C(=O)OC)c(C(=O)OC)c21)C(=O)OC	2.87	6.57	4.28	9.21	–	5.61	> 10	> 10	–	7.49	> 10	> 10	–	5.83	> 10	5.27	> 10	–	> 10	> 10
CC(CN(C)C)C(=O)c1ccccc1 (stereo unspecified)	97.8	> 55.5	31.7	> 84.7	> 31.6	> 100	41.3	15.6	85	19.8	> 51.5	–	–	> 55	> 100	–	33.8	> 56.6	66.8	–
COc1ccc(C2C3CCCC(C3=O)C(c3ccc(OC)cc3)N2N=O)cc1 (stereo unspecified)	20	45	32.5	82.7	> 100	–	51.2	> 100	> 100	47.8	> 74.1	> 87.2	–	–	97.5	–	39.2	> 100	45.1	–
COC1CCC(=O)N1CN(C(C)=O)c1ccc(C)cc1 (stereo unspecified)	> 100	> 100	> 100	> 100	> 100	> 100	> 100	> 100	> 100	> 100	> 100	> 100	> 100	> 100	–	> 100	> 100	> 100	> 100	–
CC(=O)C(=[N+]=[N-])C(=O)N(C)CCC#N	> 10	–	> 10	> 10	> 10	> 10	> 10	–	> 10	> 10	> 10	–	> 10	> 10	> 10	> 10	> 10	> 10	> 10	> 10
CCCC1(CCC)c2cc(/C=N\O)ccc2-c2ccc(-c3ccc(C(C)(C)C)cc3)cc21	55	> 100	> 100	> 100	> 100	> 100	> 100	> 100	> 100	> 100	> 100	> 100	> 100	> 100	> 100	39.7	53.5	92.6	99.3	–
CCn1c(=O)c2nc(SC)sc2n(-c2ccccc2)c1=O	> 100	> 100	> 100	> 100	56.4	> 100	> 100	–	> 100	> 100	> 100	> 100	> 100	> 100	> 100	> 100	> 100	> 100	> 100	–
COc1ccc(-n2c(=O)n(-c3ccccc3)c(=O)n2-c2ccc(OC)cc2)cc1	> 100	> 100	> 100	> 100	> 100	> 100	–	7.59	–	> 100	> 100	> 100	> 100	> 100	> 100	> 100	> 100	> 100	> 100	–
CCOC(=O)Cc1cnc(NC(NC(=O)CC)(C(F)(F)F)C(F)(F)F)s1	> 100	–	> 100	> 100	> 100	> 100	> 100	–	> 100	> 100	> 100	–	> 100	> 100	–	> 100	> 100	> 100	> 100	> 100
COc1ccc2c(c1)c(=O)c1c(NCCN(C)C)ccc3nnn2c31	19.6	8.17	2.9	17	13.3	13.3	12.3	13.6	14.9	6.13	6.03	–	–	16.2	17.4	–	19.7	18.8	19.7	–
CCOC(=O)c1c(N2CCCC2)ncn(C)c1=S	> 100	> 100	> 100	> 100	> 100	> 100	> 100	> 100	> 100	> 100	> 100	> 100	> 100	> 100	> 100	> 100	> 100	> 100	> 100	–
CNC(=O)OC(COC)CN1CCN(c2ccccc2C)CC1 (stereo unspecified)	> 10	> 10	> 10	> 10	> 10	> 10	> 10	> 10	> 10	> 10	> 10	> 10	> 10	> 10	> 10	> 10	> 10	> 10	> 10	–
O=C1CSC2=NC3=C(CSC/C3=C\c3ccccc3)C(c3ccccc3)N12 (stereo unspecified)	> 100	> 100	> 100	> 100	> 100	> 100	> 100	–	> 100	> 100	> 100	> 100	> 100	> 100	> 100	> 100	> 100	> 100	> 100	–
CO[C@@H]1C[C@H](OC(N)=O)[C@@H]2C=C[C@@H]3/C=C(C)/C=C/[C@@H](C)[C@H](/C(C)=C/[C@@H](C)NC(C)=O)OC(=O)/C=C/C=C(C)\C=C\[C@]3(C)[C@@H]2C1	0.251	11.4	0.00689	0.0866	0.111	–	0.278	0.167	1.4	0.353	0.163	2.69	2.43	0.912	0.471	–	1.67	0.458	2.12	12
COc1ccc2c3c([nH]c2c1)CCN(Cc1ccccc1)C3	–	> 100	38	42.5	39.6	65.1	> 100	–	> 100	64.6	70.5	98.3	> 100	34.8	> 100	66.4	78.2	38	–	–
